For assay [1], the system named is human epidermoid carcinoma cell line-A431. The experiment in a line: cells. The format is cell-based. The settings on record: for Percent Grown: A431, 72-hour exposure. On the procedure: In this example, assays were performed to detect changes in cell proliferation based on the ability of viable cells to cause alamarBlue to change from non-fluorescent blue to a reduced, fluorescent red form. With the results obtained from the alamarBlue reaction, cell proliferation can be quantified and metabolic activity of viable cells can be examined. Test compounds including Morinda citrifolia leaf extract, leaf juice, and roast leaf were tested for their effects on the proliferation of human epidermoid carcinoma cell line-A431 at assay concentrations from 0.01 to 100 μg/ml or 0.0001% to 1% through serial 10-fold dilutions.
Morinda citrifolia leaf extract, leaf juice, and roast leaf were provided by Tahitian Noni International, Inc. for in vitro anti-tumor studies. The Morinda citrifolia compounds were dissolved in sterile distilled water and then diluted with sterile distilled water to obtain initial working solutions of 10000, 1000, 100, 10, and 1 μg/ml for the leaf extract and roast leaf, as well as 100, 10, 1, 0.1 and 0.01% for the leaf juice. In testing, 100-fold dilution was made in culture media to get final assay concentrations of 100, 10, 1, 0.1 and 0.01 μg/ml, and 1, 0.1, 0.01, 0.001 and 0.0001%, respectively.
The tumor cell line, A431 (human epidermoid carcinoma), obtained from American Type Culture Collection (ATCC CRL-1555), was incubated in an air atmosphere of 5% CO2 at 37° C. The culture medium was used with Dulbecco's Modified Eagle's medium, 90%; Fetal Bovine Serum, 10% and supplemented with 1% Antibiotic-Antimycotic.
The anti-proliferation for the test substances was evaluated. Aliquots of 100 µl of cell suspension (about 3×10^3/well) were placed in 96-well microtiter plates in an atmosphere of 5% CO2 at 37° C. […] Two test compounds, leaf extract and roast leaf, were evaluated at concentrations of […]. The other compound, leaf juice, was evaluated at concentrations of 1, 0.1, 0.01, 0.001 and 0.0001%. At the end of incubation, 20 µl of 90% alamarBlue reagent was added to each well for another 6-hour incubation before detection of cell viability by fluorescent intensity. Fluorescent intensity was measured using a Spectrafluor Plus plate reader with excitation at 530 nm and demission at 590 nm.
IC50, TGI, and LC50 values were then determined. […] TGI (Total Growth Inhibition) is the test compound concentration where the number or mass of treated cells at the end of the experiment was equal to that at time0. […] The measured results were calculated by the following formula: PG(%)=100×(Mean Ftest−Mean Ftime0)^/(Mean Fctr l−Mean Ftime0)
If (Mean Ftest−Mean Ftime0)^<0, then PG(%)−100×(Mean Ftest−Mean Ftime0)/(Mean Ftime0−Mean Fblank)
Where: PG=percent growth; Mean Ftime0=The average of 2 measured fluorescent intensities of reduced alamarBlue at the time just before exposure of cells to the test substance; Mean Ftest=The average of 2 measured fluorescent intensities of alamarBlue after 72-hour exposure of cells to the test substance; Mean Fctrl=The average of 2 measured fluorescent intensities of alamarBlue after 72-hour incubation without the test substance; and Mean Fblank=The average of 2 measured fluorescent intensities of alamarBlue in medium without cells after 72-hour incubation.
A decrease of 50% or more (≧50%) in fluorescent intensity relative to the vehicle-treated control indicated significant cell growth inhibition, cytostatic or cytotoxic activity, and a semi-quantitative IC50, TGI, and LC50 were then determined by nonlinear regression using GraphPad Prism (GraphPad Software, USA).

The target of another assay is Adenosine A2A (Homo sapiens, UniProt P29274). The experiment in a line: bio-assay on Adenosine A2A. The settings on record: isolated from squeezed juice of fresh Morinda citrifolia leaf. The source says: Their structures have been determined by NMR techniques and mass spectrometry and they have been identified as Pyro-phorbide a, Pheoporbide a, Purpin 7, and Pheophorbide Phytolester. The isolation and characterization of the above referenced bioactive compounds provides a significant explanation for the anti-inflammatory and analgesic properties of extracts derived from the Morinda citrifolia plant, particularly from the leaf of the plant.
Adenosine A2A, sequence (P29274 whole entry): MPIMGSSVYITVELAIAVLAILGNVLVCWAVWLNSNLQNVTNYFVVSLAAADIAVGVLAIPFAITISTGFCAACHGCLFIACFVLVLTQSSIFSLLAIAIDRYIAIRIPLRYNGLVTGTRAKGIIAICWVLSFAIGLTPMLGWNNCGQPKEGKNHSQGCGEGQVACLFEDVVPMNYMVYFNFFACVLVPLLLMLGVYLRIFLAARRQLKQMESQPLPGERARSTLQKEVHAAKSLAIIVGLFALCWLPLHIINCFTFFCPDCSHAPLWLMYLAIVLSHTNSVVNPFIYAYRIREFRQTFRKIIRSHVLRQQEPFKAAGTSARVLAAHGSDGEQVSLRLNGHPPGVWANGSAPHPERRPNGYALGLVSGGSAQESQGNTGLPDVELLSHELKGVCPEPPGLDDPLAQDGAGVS

On to `CO[C@@]12[C@H](COC(N)=O)C3=C(C(=O)C(C)=C(N)C3=O)N1C[C@@H]1N[C@@H]12` [Mitomycin], for which the “Percent Grown” value in assay [1] (Concentration 0.001 (ttM)) was 101 +/− 5%; in assay [1] (Concentration 0.01 (ttM)), 82 +/− 3%; in assay [1] (Concentration 0.1 (ttM)), 7 +/− 3%; in assay [1] (Concentration 1 (ttM)) it was 35 +/− 8%; in assay [1] (Concentration 10 (ttM)), 97 +/− 0%. In addition, the IC50 in assay [1] (Homo sapiens, A-431, Tumor, Skin (A431), semi-quantitative, nonlinear regression, read-out: IC50 (50% Inhibition Concentration)) was 35 nM. Also, in assay [1] (Tumor, Skin (A431), semi-quantitative, nonlinear regression), the “TGI (Total Growth Inhibition)” value was 190 nM. In addition, the “inhibitory activity on tumor cell growth” value in assay [1] (at <10 p.M, A431) was “Significant inhibitory activity”.
For Pyro-phorbide a, the “bioactivity in bio-assay on Adenosine A2A” value at Adenosine A2A is listed as “significant bioactivity”.
On the same count and under the same terms, next, Pheophorbide Phytolester: “significant bioactivity”; Pheoporbide a: “significant bioactivity”; Purpin 7: “significant bioactivity”.

The record behind these values is patent US8535741B2, “Method and composition for administering bioactive compounds derived from Morinda citrifolia” (priority 2006, dated 2013).
